# Test system: MV-4-11 cells
# Assay: Gene expression microarray analysis (Affymetrix PrimeView) and GSEA
# Type: cell-based, human
# Design: RFU PODN (11730768_x_at) / Fold change /veh PODN (11730768_x_at) / RFU LINC00158 (11744669_a_at) / Fold change /veh LINC00158 (11744669_a_at) / RFU DUSP10 (11751237_a_at) / Fold change /veh DUSP10 (11751237_a_at) / RFU ID3 (11757404_x_at) / Fold change /veh ID3 (11757404_x_at) / RFU PLEKHG5 (11737974_s_at) / Fold change /veh PLEKHG5 (11737974_s_at) / RFU LRRC4B (11730491_at) / Fold change /veh LRRC4B (11730491_at) / RFU GIMAP4 (11747438_a_at) / Fold change /veh GIMAP4 (11747438_a_at) / RFU KRT8 (11758183_x_at) / Fold change /veh KRT8 (11758183_x_at) / RFU CNN1 (11734310_a_at) / Fold change /veh CNN1 (11734310_a_at) / RFU VPS37D (11726825_at) / Fold change /veh VPS37D (11726825_at) / RFU C10orf10 (11716522_x_at) / Fold change /veh C10orf10 (11716522_x_at) / RFU KIR2DL2 /// KIR2DL4 /// KIR2DL5A /// KIR2DL5B /// KIR2DS1 /// KIR2DS2 /// KIR2DS3 /// KIR2DS4 /// KIR3DL3 /// KIR3DL3 /// KIR3DS1 (11738374_at) / Fold change /veh KIR2DL2 /// KIR2DL4 /// KIR2DL5A /// KIR2DL5B /// KIR2DS1 /// KIR2DS2 /// KIR2DS3 /// KIR2DS4 /// KIR3DL3 /// KIR3DL3 /// KIR3DS1 (11738374_at) / RFU C1QL1 (11718748_at) / Fold change /veh C1QL1 (11718748_at) / RFU TMPRSS4 (11747572_a_at) / Fold change /veh TMPRSS4 (11747572_a_at) / RFU HAMP (11756126_x_at) / Fold change /veh HAMP (11756126_x_at) / RFU RNFT2 (11725882_a_at) / Fold change /veh RNFT2 (11725882_a_at) / RFU NR4A2 (11747474_a_at) / Fold change /veh NR4A2 (11747474_a_at) / RFU ABCC12 (11746883_a_at) / Fold change /veh ABCC12 (11746883_a_at) / RFU TMEM136 (11760407_x_at) / Fold change /veh TMEM136 (11760407_x_at) / RFU CLDN22 /// WWC2 (11732394_at) / Fold change /veh CLDN22 /// WWC2 (11732394_at) / RFU HLA-DPB1 (11760878_x_at) / Fold change /veh HLA-DPB1 (11760878_x_at) / RFU SPINT1 (11716480_a_at) / Fold change /veh SPINT1 (11716480_a_at) / RFU GAP43 (11754022_s_at) / Fold change /veh GAP43 (11754022_s_at) / RFU A4GNT (11735810_at) / Fold change /veh A4GNT (11735810_at) / RFU PRB3 (11715151_x_at) / Fold change /veh PRB3 (11715151_x_at) / RFU TUBB4B (11761932_at) / Fold change /veh TUBB4B (11761932_at) / RFU CAPN14 (11732068_a_at) / Fold change /veh CAPN14 (11732068_a_at) / RFU TMCC2 (11721928_a_at) / Fold change /veh TMCC2 (11721928_a_at) / RFU IRGQ (11745062_a_at) / Fold change /veh IRGQ (11745062_a_at) / RFU FAM174B (11720279_a_at) / Fold change /veh FAM174B (11720279_a_at) / RFU TMPRSS4 (11748680_a_at) / Fold change /veh TMPRSS4 (11748680_a_at) / RFU FAM212B (11763350_a_at) / Fold change /veh FAM212B (11763350_a_at) / RFU PLEKHG5 (11743358_a_at) / Fold change /veh PLEKHG5 (11743358_a_at) / RFU ZSCAN30 (11745921_a_at) / Fold change /veh ZSCAN30 (11745921_a_at) / RFU CMKLR1 (11741424_a_at) / Fold change /veh CMKLR1 (11741424_a_at) / RFU LOC101060620 /// MAPK8IP1 (11723275_at) / Fold change /veh LOC101060620 /// MAPK8IP1 (11723275_at) / RFU SPTSSB (11747773_x_at) / Fold change /veh SPTSSB (11747773_x_at) / RFU PRSS12 (11739890_at) / Fold change /veh PRSS12 (11739890_at) / RFU BIN1 (11741810_x_at) / Fold change /veh BIN1 (11741810_x_at) / RFU WNT11 (11732464_a_at) / Fold change /veh WNT11 (11732464_a_at) / RFU C10orf10 (11716521_a_at) / Fold change /veh C10orf10 (11716521_a_at) / RFU C5orf56 (11738089_at) / Fold change /veh C5orf56 (11738089_at) / RFU CYB561 (11721691_x_at) / Fold change /veh CYB561 (11721691_x_at) / RFU ANKRD19P (11752326_a_at) / Fold change /veh ANKRD19P (11752326_a_at) / RFU OR2T12 /// OR2T33 /// OR2T8 (11738714_s_at) / Fold change /veh OR2T12 /// OR2T33 /// OR2T8 (11738714_s_at) / RFU VCAN (11748164_a_at) / Fold change /veh VCAN (11748164_a_at) / RFU JSRP1 (11732532_at) / Fold change /veh JSRP1 (11732532_at) / RFU KRTAP10-11 (11738290_x_at) / Fold change /veh KRTAP10-11 (11738290_x_at) / RFU MYO3A (11730013_a_at) / Fold change /veh MYO3A (11730013_a_at) / RFU EBF3 (11725865_a_at) / Fold change /veh EBF3 (11725865_a_at) / RFU CAMK2N1 (11719241_x_at) / Fold change /veh CAMK2N1 (11719241_x_at) / RFU C5orf56 (11738088_a_at) / Fold change /veh C5orf56 (11738088_a_at) / RFU OLFML3 (11715873_a_at) / Fold change /veh OLFML3 (11715873_a_at) / RFU LOC100653217 /// NTM (11731650_a_at) / Fold change /veh LOC100653217 /// NTM (11731650_a_at) / RFU MAPK11 (11762145_a_at) / Fold change /veh MAPK11 (11762145_a_at) / RFU FIZ1 (11724087_x_at) / Fold change /veh FIZ1 (11724087_x_at) / RFU OASL (11726364_x_at) / Fold change /veh OASL (11726364_x_at) / RFU SOX15 (11748057_x_at) / Fold change /veh SOX15 (11748057_x_at) / RFU CD79A (11719716_a_at) / Fold change /veh CD79A (11719716_a_at) / RFU HIST1H1D (11736915_at) / Fold change /veh HIST1H1D (11736915_at) / RFU CASKIN2 (11723855_a_at) / Fold change /veh CASKIN2 (11723855_a_at) / RFU LOC730098 (11760151_x_at) / Fold change /veh LOC730098 (11760151_x_at) / RFU OR4N2 (11742367_at) / Fold change /veh OR4N2 (11742367_at) / RFU PRRT2 (11749266_a_at) / Fold change /veh PRRT2 (11749266_a_at) / RFU SNX32 (11753110_a_at) / Fold change /veh SNX32 (11753110_a_at) / RFU CDHR5 (11726645_a_at) / Fold change /veh CDHR5 (11726645_a_at) / RFU RCAN1 (11760418_a_at) / Fold change /veh RCAN1 (11760418_a_at) / RFU FAM167A (11723789_a_at) / Fold change /veh FAM167A (11723789_a_at) / RFU FAM26E (11764081_at) / Fold change /veh FAM26E (11764081_at) / RFU ISYNA1 (11749810_s_at) / Fold change /veh ISYNA1 (11749810_s_at) / RFU ACY1 (11761880_at) / Fold change /veh ACY1 (11761880_at) / RFU 11764098_at / Fold change /veh 11764098_at / RFU SAMD14 (11745864_x_at) / Fold change /veh SAMD14 (11745864_x_at) / RFU NPB (11741838_a_at) / Fold change /veh NPB (11741838_a_at) / RFU TMPRSS6 (11731388_a_at) / Fold change /veh TMPRSS6 (11731388_a_at) / RFU KRTAP10-2 (11738614_at) / Fold change /veh KRTAP10-2 (11738614_at) / RFU ARHGAP8 /// PRR5-ARHGAP8 (11727945_x_at) / Fold change /veh ARHGAP8 /// PRR5-ARHGAP8 (11727945_x_at) / RFU KRTAP5-7 /// NADSYN1 (11734609_at) / Fold change /veh KRTAP5-7 /// NADSYN1 (11734609_at) / RFU RASL12 (11751679_a_at) / Fold change /veh RASL12 (11751679_a_at) / RFU CDKN2B (11736163_a_at) / Fold change /veh CDKN2B (11736163_a_at) / RFU PRF1 (11729649_at) / Fold change /veh PRF1 (11729649_at) / RFU, ZNF638 /// ZNF638-IT1 / Fold change vs veh, ZNF638 /// ZNF638-IT1 / RFU, PANK3 / Fold change vs veh, PANK3 / RFU, SH3YL1 / Fold change vs veh, SH3YL1 / RFU, ZEB2 / Fold change vs veh, ZEB2 / RFU, NRIP1 / Fold change vs veh, NRIP1 / RFU, PTTG1IP / Fold change vs veh, PTTG1IP / RFU, CAPN2 / Fold change vs veh, CAPN2 / RFU, MED14 / Fold change vs veh, MED14 / RFU, SNORA58 / Fold change vs veh, SNORA58 / RFU, C1orf63 / Fold change vs veh, C1orf63 / RFU, LRRFIP1 / Fold change vs veh, LRRFIP1 / RFU, NDUFAF7 / Fold change vs veh, NDUFAF7 / RFU, SLC12A2 / Fold change vs veh, SLC12A2 / RFU, IBTK / Fold change vs veh, IBTK / RFU, ESF1 / Fold change vs veh, ESF1 / Fold change vs veh, TMEM50B / RFU, TAOK1 / Fold change vs veh, TAOK1 / RFU, ACBD3 / Fold change vs veh, ACBD3 / RFU, TMA16 / Fold change vs veh, TMA16 / RFU, RWDD3 / Fold change vs veh, RWDD3 / RFU, BCAT1 / Fold change vs veh, BCAT1 / RFU, EDEM3 / Fold change vs veh, EDEM3 / RFU, TMEM33 / Fold change vs veh, TMEM33 / RFU, WDR75 / Fold change vs veh, WDR75 / RFU, AHCTF1 / Fold change vs veh, AHCTF1 / RFU, TFRC / Fold change vs veh, TFRC / RFU, ZDHHC17 / Fold change vs veh, ZDHHC17 / RFU, NOM1 / Fold change vs veh, NOM1 / RFU, ARL8B / Fold change vs veh, ARL8B / RFU, ZBTB11 / Fold change vs veh, ZBTB11 / RFU, TAMM41 / Fold change vs veh, TAMM41 / RFU, KIAA1704 /// LOC100996395 / Fold change vs veh, KIAA1704 /// LOC100996395 / RFU, ING1 / Fold change vs veh, ING1 / RFU, TRMT61B / Fold change vs veh, TRMT61B / RFU, FUBP3 / Fold change vs veh, FUBP3 / RFU, TP53 / Fold change vs veh, TP53 / RFU, TNKS2 / Fold change vs veh, TNKS2 / RFU, ZFP14 / Fold change vs veh, ZFP14 / RFU, ACTR2 / Fold change vs veh, ACTR2 / RFU, PPP3R1 / Fold change vs veh, PPP3R1 / RFU, PIK3R1 / Fold change vs veh, PIK3R1 / RFU, HNRNPA1 / Fold change vs veh, HNRNPA1 / RFU, RNF170 / Fold change vs veh, RNF170 / RFU, ZNF28 / Fold change vs veh, ZNF28 / RFU, RNGTT / Fold change vs veh, RNGTT / RFU, OGT / Fold change vs veh, OGT / RFU, BRD1 / Fold change vs veh, BRD1 / RFU, MARS / Fold change vs veh, MARS / RFU, ZNF655 / Fold change vs veh, ZNF655 / RFU, FAHD1 / Fold change vs veh, FAHD1 / RFU, BDP1 / Fold change vs veh, BDP1 / RFU, LRRCC1 / Fold change vs veh, LRRCC1 / RFU, ARID1A / Fold change vs veh, ARID1A / RFU, ZNF146 / Fold change vs veh, ZNF146 / RFU, ZNF330 / Fold change vs veh, ZNF330 / RFU, GPN3 / Fold change vs veh, GPN3 / RFU, C9orf123 / Fold change vs veh, C9orf123 / RFU, N4BP2L2 / Fold change vs veh, N4BP2L2 / RFU, ARFIP1 / Fold change vs veh, ARFIP1 / RFU, FAM179B / Fold change vs veh, FAM179B / RFU, BCL10 / Fold change vs veh, BCL10 / RFU, UHRF1BP1L / Fold change vs veh, UHRF1BP1L / RFU, BET1 / Fold change vs veh, BET1 / RFU, CNOT2 / Fold change vs veh, CNOT2 / RFU, ZNF268 / Fold change vs veh, ZNF268 / Fold change vs veh, ZNF507 / RFU, DGCR2 / Fold change vs veh, DGCR2 / RFU, WDSUB1 / Fold change vs veh, WDSUB1 / Fold change vs veh, HSP90B1 /// MIR3652 / RFU, ADSS / Fold change vs veh, ADSS / RFU, GK / Fold change vs veh, GK / RFU, ZNF148 / Fold change vs veh, ZNF148 / RFU, TAF9 / Fold change vs veh, TAF9 / RFU, SLC1A5 / Fold change vs veh, SLC1A5 / RFU, SLMO2 / Fold change vs veh, SLMO2 / RFU, ABCC4 / Fold change vs veh, ABCC4 / RFU, LOC101060439 /// RAP1B / Fold change vs veh, LOC101060439 /// RAP1B / RFU, RFX7 / Fold change vs veh, RFX7 / RFU, GTPBP10 / Fold change vs veh, GTPBP10 / RFU, CNEP1R1 / Fold change vs veh, CNEP1R1 / RFU, BIVM-ERCC5 /// ERCC5 / Fold change vs veh, BIVM-ERCC5 /// ERCC5 / RFU, ILF3 / Fold change vs veh, ILF3 / RFU 11762660_at / Fold change /veh 11762660_at / RFU VCAN (11757783_s_at) / Fold change /veh VCAN (11757783_s_at) / RFU DDX43 (11728927_at) / Fold change /veh DDX43 (11728927_at) / RFU KRT8 (11758188_x_at) / Fold change /veh KRT8 (11758188_x_at) / RFU NKD1 (11759106_at) / Fold change /veh NKD1 (11759106_at) / RFU SRD5A1 (11742802_a_at) / Fold change /veh SRD5A1 (11742802_a_at) / RFU TPSAB1 /// TPSB2 (11721975_s_at) / Fold change /veh TPSAB1 /// TPSB2 (11721975_s_at) / RFU GSTM3 (11746129_a_at) / Fold change /veh GSTM3 (11746129_a_at) / RFU IL23R (11737362_x_at) / Fold change /veh IL23R (11737362_x_at) / RFU TMEM51 (11727254_a_at) / Fold change /veh TMEM51 (11727254_a_at) / RFU PIWIL2 (11732686_x_at) / Fold change /veh PIWIL2 (11732686_x_at) / RFU ORM1 (11744905_x_at) / Fold change /veh ORM1 (11744905_x_at) / RFU CCDC152 (11743942_at) / Fold change /veh CCDC152 (11743942_at) / RFU ECM1 (11717891_a_at) / Fold change /veh ECM1 (11717891_a_at) / RFU IL23R (11748794_a_at) / Fold change /veh IL23R (11748794_a_at) / RFU TNFAIP8L3 (11732012_x_at) / Fold change /veh TNFAIP8L3 (11732012_x_at) / RFU MBOAT4 (11741988_at) / Fold change /veh MBOAT4 (11741988_at) / RFU 11764193_at / Fold change /veh 11764193_at / RFU TMEM53 (11763286_at) / Fold change /veh TMEM53 (11763286_at) / RFU MAGEB2 (11727129_at) / Fold change /veh MAGEB2 (11727129_at) / RFU TMEM200A (11744735_a_at) / Fold change /veh TMEM200A (11744735_a_at) / RFU CCDC152 (11751479_a_at) / Fold change /veh CCDC152 (11751479_a_at) / RFU FAM211A (11726209_a_at) / Fold change /veh FAM211A (11726209_a_at) / RFU RGS16 (11746705_a_at) / Fold change /veh RGS16 (11746705_a_at) / RFU VCAN (11755009_s_at) / Fold change /veh VCAN (11755009_s_at) / RFU RHOB (11743442_s_at) / Fold change /veh RHOB (11743442_s_at) / RFU RGS16 (11720943_a_at) / Fold change /veh RGS16 (11720943_a_at) / RFU RGS16 (11720944_at) / Fold change /veh RGS16 (11720944_at) / RFU, VPS4B / Fold change vs veh, VPS4B / RFU, CREB1 / Fold change vs veh, CREB1 / RFU, DNAJC13 / Fold change vs veh, DNAJC13 / RFU, GNAQ / Fold change vs veh, GNAQ / RFU, CDK5R1 / Fold change vs veh, CDK5R1 / RFU, ZRANB3 / Fold change vs veh, ZRANB3 / RFU, CUL4A / Fold change vs veh, CUL4A / RFU, CCNY / Fold change vs veh, CCNY / RFU, UFL1 / Fold change vs veh, UFL1 / RFU, COG3 / Fold change vs veh, COG3 / RFU, DIAPH2 / Fold change vs veh, DIAPH2 / RFU, SKA2 / Fold change vs veh, SKA2 / RFU, AFF3 / Fold change vs veh, AFF3 / RFU, LMF1 / Fold change vs veh, LMF1 / RFU, IPO11 / Fold change vs veh, IPO11 / RFU, DFFB / Fold change vs veh, DFFB / RFU, FOXP1 / Fold change vs veh, FOXP1 / RFU, CARD8 / Fold change vs veh, CARD8 / RFU, STRN3 / Fold change vs veh, STRN3 / RFU, ADK / Fold change vs veh, ADK / RFU, RASSF2 / Fold change vs veh, RASSF2 / RFU, WIPF1 / Fold change vs veh, WIPF1 / RFU, LARP1B / Fold change vs veh, LARP1B / RFU, RASA1 / Fold change vs veh, RASA1 / RFU, RB1 / Fold change vs veh, RB1 / RFU, PPFIA1 / Fold change vs veh, PPFIA1 / RFU, MAT2A / Fold change vs veh, MAT2A / RFU, CCT5 / Fold change vs veh, CCT5 / RFU, WDR92 / Fold change vs veh, WDR92 / RFU, CUX1 / Fold change vs veh, CUX1 / RFU, TTC7A / Fold change vs veh, TTC7A / RFU, TMEM135 / Fold change vs veh, TMEM135 / RFU, DEPTOR / Fold change vs veh, DEPTOR / RFU, CPM / Fold change vs veh, CPM / RFU, DNAJB6 / Fold change vs veh, DNAJB6 / RFU, CACNA2D3 / Fold change vs veh, CACNA2D3 / RFU, DTX4 / Fold change vs veh, DTX4 / RFU, TFCP2 / Fold change vs veh, TFCP2 / RFU, GMCL1 /// GMCL1P1 / Fold change vs veh, GMCL1 /// GMCL1P1 / RFU, AEBP2 / Fold change vs veh, AEBP2 / RFU, SNHG1 /// SNORD22 /// SNORD25 /// SNORD26 /// SNORD27 /// SNORD28 /// SNORD29 /// SNORD31 / Fold change vs veh, SNHG1 /// SNORD22 /// SNORD25 /// SNORD26 /// SNORD27 /// SNORD28 /// SNORD29 /// SNORD31 / Fold change (Aza/veh), C12orf56 (ProbeSet 11735607_a_at) / Fold change (ACY-1035/veh), C12orf56 (ProbeSet 11735607_a_at) / Fold change (Aza/veh), FGFR1OP (ProbeSet 11751329_s_at) / Fold change (ACY-1035/veh), FGFR1OP (ProbeSet 11751329_s_at) / Fold change (Aza/veh), VPS36 (ProbeSet 11739960_a_at) / Fold change (ACY-1035/veh), VPS36 (ProbeSet 11739960_a_at) / RFU SYPL1 (11715823_x_at) / Fold change /veh SYPL1 (11715823_x_at) / RFU IGFBP7 (11715501_s_at) / Fold change /veh IGFBP7 (11715501_s_at) / RFU REEP3 (11722064_at) / Fold change /veh REEP3 (11722064_at) / RFU IGLL1 (11728026_x_at) / Fold change /veh IGLL1 (11728026_x_at): dose or concentration left out as unconfirmed
# Details: ProbeSet 11724877_a_at; LIST D
smiles,measurement,value
Nc1ccc(-c2cccs2)cc1NC(=O)c1ccc2c(c1)cc(C1CC1)n2CCN1CCOCC1 [ACY-1035],"Fold change vs veh, AEBP2",1.03
